{
  "source": "PubChem BioAssay AID2060905",
  "about": "(Molecular Pharmacology Branch, DTP, NCI, 2025);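 further: spheroids exposed to agents for seven days before readout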;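 on viability, T/C: luminescence viability as percent of DMSO vehicle control wells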",
  "tested_on": "282377-053-R-J1-PDC complex spheroid viability",
  "test": "Anticancer human tumor 282377-053-R-J1-PDC patient-derived colon adenocarcinoma cell line growth inhibition [RAS]",
  "conditions": "for IC50: curve of first compound; for viability, T/C: stronger effect = lower value",
  "in_short": "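Agents were tested in combination matrices in half-log decrements from a top concentration at or near clinical Cmax (10 microM if undetermined). Targets were multi-cell spheroids of tumour lines plus HUVEC and MSC stromal cells.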",
  "data": [
    {"smiles": "C=CC(=O)N1CCN(c2nc(OCC3CCCN3C)nc3c(F)c(-c4nc(N)cc(C)c4C(F)(F)F)c(Cl)cc23)C(C)C1", "note": "(configuration not stated) + CCn1c(-c2cc(N3CCN(C)CC3)cnc2C(C)OC)c2c3cc(ccc31)-c1csc(n1)CC(NC(=O)C1CC1C)C(=O)N1CCCC(N1)C(=O)OCC(C)(C)C2", "values": [
      {"measurement": "IC50", "setting": "second compound 0.000949 µM", "value": "> 1000", "unit": "nM"},
      {"measurement": "IC50", "setting": "second compound 0.003 µM", "value": "> 1000", "unit": "nM"},
      {"measurement": "IC50", "setting": "second compound 0.00949 µM", "value": "> 1000", "unit": "nM"},
      {"measurement": "IC50", "setting": "second compound 0.03 µM", "value": "> 1000", "unit": "nM"},
      {"measurement": "IC50", "setting": "second compound 0.0949 µM", "value": "> 1000", "unit": "nM"},
      {"measurement": "IC50", "setting": "second compound 0.3 µM", "value": "> 1000", "unit": "nM"},
      {"measurement": "viability, T/C", "setting": "second compound 0.000949 µM, first compound 0.00316 µM", "value": 110, "unit": "%"},
      {"measurement": "viability, T/C", "setting": "second compound 0.000949 µM, first compound 0.01 µM", "value": 101, "unit": "%"},
      {"measurement": "viability, T/C", "setting": "second compound 0.000949 µM, first compound 0.0316 µM", "value": 112, "unit": "%"},
      {"measurement": "viability, T/C", "setting": "second compound 0.000949 µM, first compound 0.1 µM", "value": 102, "unit": "%"},
      {"measurement": "viability, T/C", "setting": "second compound 0.000949 µM, first compound 0.316 µM", "value": 129, "unit": "%"},
      {"measurement": "viability, T/C", "setting": "second compound 0.000949 µM, first compound 1 µM", "value": 107, "unit": "%"},
      {"measurement": "viability, T/C", "setting": "second compound 0.003 µM, first compound 0.00316 µM", "value": 108, "unit": "%"},
      {"measurement": "viability, T/C", "setting": "second compound 0.003 µM, first compound 0.01 µM", "value": 120, "unit": "%"},
      {"measurement": "viability, T/C", "setting": "second compound 0.003 µM, first compound 0.0316 µM", "value": 98.4, "unit": "%"},
      {"measurement": "viability, T/C", "setting": "second compound 0.003 µM, first compound 0.1 µM", "value": 115, "unit": "%"},
      {"measurement": "viability, T/C", "setting": "second compound 0.003 µM, first compound 0.316 µM", "value": 73.2, "unit": "%"},
      {"measurement": "viability, T/C", "setting": "second compound 0.003 µM, first compound 1 µM", "value": 143, "unit": "%"},
      {"measurement": "viability, T/C", "setting": "second compound 0.00949 µM, first compound 0.00316 µM", "value": 134, "unit": "%"},
      {"measurement": "viability, T/C", "setting": "second compound 0.00949 µM, first compound 0.01 µM", "value": 97.6, "unit": "%"},
      {"measurement": "viability, T/C", "setting": "second compound 0.00949 µM, first compound 0.0316 µM", "value": 115, "unit": "%"},
      {"measurement": "viability, T/C", "setting": "second compound 0.00949 µM, first compound 0.1 µM", "value": 89.5, "unit": "%"},
      {"measurement": "viability, T/C", "setting": "second compound 0.00949 µM, first compound 0.316 µM", "value": 108, "unit": "%"},
      {"measurement": "viability, T/C", "setting": "second compound 0.00949 µM, first compound 1 µM", "value": 110, "unit": "%"},
      {"measurement": "viability, T/C", "setting": "second compound 0.03 µM, first compound 0.00316 µM", "value": 120, "unit": "%"},
      {"measurement": "viability, T/C", "setting": "second compound 0.03 µM, first compound 0.01 µM", "value": 85.6, "unit": "%"},
      {"measurement": "viability, T/C", "setting": "second compound 0.03 µM, first compound 0.0316 µM", "value": 88.1, "unit": "%"},
      {"measurement": "viability, T/C", "setting": "second compound 0.03 µM, first compound 0.1 µM", "value": 96.6, "unit": "%"},
      {"measurement": "viability, T/C", "setting": "second compound 0.03 µM, first compound 0.316 µM", "value": 93.6, "unit": "%"},
      {"measurement": "viability, T/C", "setting": "second compound 0.03 µM, first compound 1 µM", "value": 107, "unit": "%"},
      {"measurement": "viability, T/C", "setting": "second compound 0.0949 µM, first compound 0.00316 µM", "value": 124, "unit": "%"},
      {"measurement": "viability, T/C", "setting": "second compound 0.0949 µM, first compound 0.01 µM", "value": 113, "unit": "%"},
      {"measurement": "viability, T/C", "setting": "second compound 0.0949 µM, first compound 0.0316 µM", "value": 106, "unit": "%"},
      {"measurement": "viability, T/C", "setting": "second compound 0.0949 µM, first compound 0.1 µM", "value": 119, "unit": "%"},
      {"measurement": "viability, T/C", "setting": "second compound 0.0949 µM, first compound 0.316 µM", "value": 91.8, "unit": "%"},
      {"measurement": "viability, T/C", "setting": "second compound 0.0949 µM, first compound 1 µM", "value": 133, "unit": "%"},
      {"measurement": "viability, T/C", "setting": "second compound 0.3 µM, first compound 0.00316 µM", "value": 113, "unit": "%"},
      {"measurement": "viability, T/C", "setting": "second compound 0.3 µM, first compound 0.01 µM", "value": 93.7, "unit": "%"},
      {"measurement": "viability, T/C", "setting": "second compound 0.3 µM, first compound 0.0316 µM", "value": 134, "unit": "%"},
      {"measurement": "viability, T/C", "setting": "second compound 0.3 µM, first compound 0.1 µM", "value": 120, "unit": "%"},
      {"measurement": "viability, T/C", "setting": "second compound 0.3 µM, first compound 0.316 µM", "value": 104, "unit": "%"},
      {"measurement": "viability, T/C", "setting": "second compound 0.3 µM, first compound 1 µM", "value": 121, "unit": "%"}
    ]}
  ]
}
